Assay results reported in patent publication US12258331B2, “Pyrimidine derivative and preparation process and use thereof” (Guangdong Lewwin Pharmaceutical Research Institute Co., Ltd., priority 2018, dated 2025).

What was measured:
[1] = Pharmacokinetic properties after intravenous injection and intragastric administration; type: in vivo, mice
Method: Shanghai Medicilon Bio-pharmaceutical Co., LTD was commissioned to research pharmacokinetic properties of the novel pyrimidine derivatives (R)-14, (R)-5b, and Tepotinib in mice. The specific processes are: An appropriate amount of the compounds (R)-14, (R)-5b and Tepotinib were accurately weighed and dissolved in a solution containing 2% Solutol and 98% 100 mM sodium acetate to obtain a clear dosing solution at a concentration of 2 mg/mL for intravenous administration. An appropriate amount of the compounds (R)-14, (R)-5b were accurately weighed and dissolved in 5% Solutol and 95% saline to obtain a clear dosing solution at a concentration of 5 mg/mL. An appropriate amount of Tepotinib was accurately weighed and dissolved in 5% Solutol, 5% DMSO and 90% saline, for oral administration and injection. Blood was collected from the test […] via jugular vein puncture, about 0.3 mL for per sample, and using heparin sodium as the anticoagulant. The time points for blood sampling were as below (including intravenous injection and oral administration): before administration, 5 min, 15 min, 30 min, 1 h, 2 h, 4 h, 8 h and 24 h post administration. After collection, blood samples were placed on ice, and plasma was separated by centrifugation within 30 minutes (centrifugation conditions: 8000 rpm, 6 minutes, 2-8° C.). The collected plasma was stored at −80° C. before analysis. Plasma samples were all analyzed qualitatively and quantitatively by LC-MS/MS. The dosage and ways for administration were intravenous injection (IV, 2 mg/kg) and intragastric administration (PO, 5 mg/kg) respectively, with the pharmacokinetic data shown in Table 3.

[2] = Metabolic stability in rat liver microsomes; conditions: 37° C.
Method: Firstly, a SD rat (200-300 g) was fasted for 12 hours, and then infused rapidly with normal saline. Liver was taken out from the rat, from which liver microsomes were extracted at 0-4° C., ready for use after calibrating the concentration of liver microsomes. At 37° C., liver microsomes were incubated in combination with a certain concentration of compounds and auxiliary reagents for a period of time. The reaction was then quenched with acetonitrile.

[3] = Sprague-Dawley, mouse, in vivo, iv, 2 mg/kg
[4] = Sprague-Dawley, mouse, in vivo, po, 5 mg/kg

Row | AUC0-∞ [1, 3] [µg·h/mL] | CL [1, 3] [L/h/kg] | T1/2 [1, 3] [h] | AUC0-∞ [1, 4] [µg·h/mL] | Tmax [1, 4] [h] | T1/2 (metabolic half-life in liver microsomes) [2] [h] | AUC0-∞ ([1]; IV 2 mg/kg) [µg·h/mL] | CL ([1]; IV 2 mg/kg) [L/h/kg] | T1/2 ([1]; IV 2 mg/kg) [h] | Vz ([1]; IV 2 mg/kg) [L/kg] | AUC0-∞ ([1]; PO 5 mg/kg) [µg·h/mL] | Cmax ([1]; PO 5 mg/kg) [µg/mL] | Tmax ([1]; PO 5 mg/kg) [h] | F % (bioavailability) ([1]; PO 5 mg/kg vs IV 2 mg/kg) [%] | Structure (SMILES)
1 | 2.44164 | 0.81912 | 4.48 | 6.30937 | 4 | – | – | – | – | – | – | – | – | – | [2H]C([2H])([2H])C([2H])(c1cccc(-c2ncc(OCC3CCN(C)CC3)cn2)c1)n1nc(-c2cccc(C#N)c2)ccc1=O (stereo in doubt) [(R)-14]
2 | 2.14391 | 0.93287 | 4.23 | 4.58023 | – | – | – | – | – | – | – | – | – | – | C[C@H](c1cccc(-c2ncc(OCC3CCN(C)CC3)cn2)c1)n1nc(-c2cccc(C#N)c2)ccc1=O [(R)-5b]
3 | – | – | – | – | – | 0.345 | 0.56274 | 3.55403 | 1.79 | 9.17868 | 0.98169 | 0.21123 | 1 | 67.77 | CN1CCC(COc2cnc(-c3cccc(Cn4nc(-c5cccc(C#N)c5)ccc4=O)c3)nc2)CC1 [Tepotinib]
